Consider 8 compounds from ChEMBL document CHEMBL1201862, “PubChem BioAssay data set” (2004).

Each structure is given as a SMILES string. The source made the active and inactive calls.

Broadly, the IC50 is the concentration that inhibits the measured activity by half. The AC50 is the midpoint of the concentration-response curve, whichever way the signal moves. As a reminder, the EC50 is the concentration needed to bring the measured effect to its halfway point.

Test [1] concerns the target Signal transducer and activator of transcription 1-alpha/beta (Homo sapiens, UniProt P42224). In words: inhibition of STAT1 reporter activity – cell-based, NIH 3T3, luciferase reporter, dose response (AID 1396). The class given is functional. (In general: Reporter assays use an easily measured gene product as a stand-in for the process of interest.)
The target of a further test is Paired box protein Pax-8 (Homo sapiens, UniProt Q06710). In words: PAX8 transcriptional activity inhibition in RMG-I – RMG-I cells, luciferase, cherry-pick, dose response (AID 687027).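 Also: luciferase reporter driven by Pax8 target thyroperoxidase promoter measured by SteadyGlo luminescence.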 The class given is functional, cell-based.
Paired box protein Pax-8, sequence (Q06710 whole entry): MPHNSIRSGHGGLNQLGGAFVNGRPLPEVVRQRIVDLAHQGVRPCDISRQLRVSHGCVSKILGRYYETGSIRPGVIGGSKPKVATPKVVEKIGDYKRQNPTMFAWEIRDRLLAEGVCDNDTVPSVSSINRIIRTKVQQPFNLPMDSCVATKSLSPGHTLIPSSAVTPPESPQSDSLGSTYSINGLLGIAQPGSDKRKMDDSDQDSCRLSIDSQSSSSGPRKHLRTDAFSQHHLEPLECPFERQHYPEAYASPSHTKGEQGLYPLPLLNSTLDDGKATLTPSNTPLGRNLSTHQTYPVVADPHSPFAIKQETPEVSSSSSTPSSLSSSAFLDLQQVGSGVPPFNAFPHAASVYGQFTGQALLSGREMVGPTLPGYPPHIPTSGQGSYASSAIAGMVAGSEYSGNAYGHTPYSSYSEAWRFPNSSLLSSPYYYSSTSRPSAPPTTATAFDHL
A short description of test [2]: toxicity toward immortalized ovarian surface epithelium – cell-based, plate reader, dry powder samples, cytotoxicity control for PAX8 inhibitor project, dose response (AID 743045). The class given is functional.
Test [3] in a line: viability loss in A549 lung cells – cell-based, 24 h, CellTiter-Glo luminescence, cherry-picks, cytotoxicity control, dose response (AID 1053115). The class given is functional. The note with it: A549, 24 h.
Test [4] is described as follows: OVCAR-3 cell viability loss – plate reader, dry powder samples, PAX8 inhibitor project, dose response (AID 743044). The class given is functional, cell-based.
Test [5] in a line: general mammalian cell viability loss – inhibitor set, cherry-pick, set 2, cytotoxicity control for miR-122 modulator project, dose response (AID 720697). The class given is functional, cell-based.
A short description of test [6]: general mammalian cell viability loss – activator set, cherry-pick, cytotoxicity control for miR-122 modulator project, dose response (AID 720690).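 Also: HEK293T human cells scored for general mammalian cytotoxicity.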 The class given is functional, cell-based.
The nature of test [7]: OVCAR8 cell viability loss – plate reader, dry powder samples, PAX8 project, dose response (AID 743197). The class given is functional, cell-based. To be noted: OVCAR-8.
A short description of test [8]: lung carcinoma cell viability loss – CellTiter-Glo luminescence, dry powder, set 17, dose response (AID 1117284). The class given is functional, cell-based. The note with it: A549.
Test [9] in a line: Late stage results for the probe development effort to identify inhibitors of Plasmodium falciparum gametocytes: Luminescence-based cell-based high throughput dose response assay to identify inhibitors of viability of late stage Plasmodium falciparum gametocytes. The class given is functional.
Test [10] in a line: luciferase reporter signal suppression in cells – H4 neuroglioma cells, luminescence, dose response (AID 1990). The class given is functional, cell-based.
The nature of test [11]: Luminescence Cell-Based Dose Response HTS to Identify Inhibitors of 5'UTR Stem-Loop Driven Prion Protein mRNA Translation in H4 Neuroglioblastoma Cells. [Related pubchem assays: 1827 (Project Summary), 1813 (Primary HTS)]. The class given is functional.
The nature of test [12]: alpha-synuclein stem-loop luciferase translation blockers – H4 neuroglioma cells, luminescence, confirmation (AID 1988). The class given is functional, cell-based.
The nature of test [13]: HIV-1 Vif–A3G interaction blockers – biochemical, TR-FRET, GST-Vif 1-94, biotin-A3G peptide, dose response retest, primary screen (AID 1117319).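 Also: TR-FRET signal of purified GST-Vif binding a biotinylated A3G peptide; inhibitors lower the FRET signal by blocking Vif and A3G binding.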 The class given is functional. A general note: In TR-FRET formats the signal depends on donor and acceptor labels being close together.
The nature of test [14]: growth inhibition of yeast DHODH-expressing 3D7 parasites – SYBR Green, dry powder samples, dose response (AID 1159570).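 Also: parasite growth measured after 72 hours of compound exposure.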 The class given is functional, cell-based.
Test [15] can be described thus: Dd2 parasite growth inhibition in erythrocytes – SYBR Green, dry powder samples, set 9, dose response (AID 1159568). The class given is functional, cell-based.
Test [16] in a line: P. falciparum Dd2 growth inhibitors, dose response, SYBR Green, cherry-picked samples (AID 1159567). The class given is functional, cell-based.
Test [17] can be described thus: Dd2 malaria parasite growth inhibition potency – SYBR Green, dry powder samples, dose response (AID 1159566).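 Also: potency for growth inhibition with lower SYBR green DNA signal.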 The class given is functional, cell-based.
The nature of test [18]: Plasmodium falciparum Dd2 Sybr green parasite growth Measured in Cell-Based and Microorganism Combination System Using Plate Reader - 2153-01_Inhibitor_Dose_DryPowder_Activity_Set3. The class given is functional.
Test [19] in a line: growth inhibition of PfATP4-mutant resistant parasites – NITD609-resistant line, SYBR Green, dry powder, dose response (AID 1159571).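 Also: parasites synchronized at ring stage by sorbitol before testing.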 The class given is functional, cell-based.
The nature of test [20]: T. cruzi growth inhibition in host cells, dose response, cell-based, plate reader, dry powder, set 2 (AID 652275). The class given is functional.
The nature of test [21]: Trypanosoma cruzi replication inhibitors in host cells – cell-based, plate reader, dry powder samples, dose response (AID 651845). The class given is functional.
Test [22] is described as follows: anti-trypanosomal activity in BESM host cells – imaging, CA-I/72 strain, bovine embryo skeletal muscle, dry powder, dose response (AID 651885). The class given is functional, cell-based.
Test [23] can be described thus: IC50 of insulin release inhibition, rat insulinoma INS-1E line, 5 mM glucose, cell-based (AID 1117331). The class given is functional.
Another test can be described thus: cells. The class given is functional, cell-based. The note with it: INS-1E.
The target of test [24] is Serine/threonine-protein phosphatase PP1-alpha catalytic subunit (Homo sapiens, UniProt P62136). As to the kind of experiment: inhibition of protein phosphatase 1 activity – biochemical, fluorescence, dose response (AID 2403).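 Also: phosphatase turnover of OMFP into fluorescent 3-O-methylfluorescein.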
Serine/threonine-protein phosphatase PP1-alpha catalytic subunit, sequence (P62136 whole entry): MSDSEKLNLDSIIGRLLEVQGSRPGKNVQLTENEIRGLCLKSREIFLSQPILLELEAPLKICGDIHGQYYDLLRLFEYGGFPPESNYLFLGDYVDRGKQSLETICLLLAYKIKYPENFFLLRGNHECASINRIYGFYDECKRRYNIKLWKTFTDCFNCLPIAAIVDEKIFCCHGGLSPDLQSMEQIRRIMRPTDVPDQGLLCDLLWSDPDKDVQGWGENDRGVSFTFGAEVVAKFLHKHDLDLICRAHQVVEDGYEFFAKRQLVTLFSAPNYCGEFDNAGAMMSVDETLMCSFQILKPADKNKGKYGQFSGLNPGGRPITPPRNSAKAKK
Test [25] in a line: microbe, parasite or virus in culture. The class given is functional. To be noted: Mycobacterium tuberculosis.
The target of test [26] is Serine/threonine-protein phosphatase (Homo sapiens, UniProt Q9BPW0). As to the kind of experiment: Counterscreen for inhibitors of PP1: fluorescence-based biochemical high throughput dose response assay to identify inhibitors of Protein Phosphatase 5 (PP5). [Related pubchem assays: 2034 (Summary (PP5 inhibitors)), 1987 (PP5 inhibitors in singlate), 2235 (PP1 inhibitors in singlate)]. For orientation: The purpose of a counterscreen is to sort out artefacts and off-target activity.
Serine/threonine-protein phosphatase, sequence (Q9BPW0 whole entry): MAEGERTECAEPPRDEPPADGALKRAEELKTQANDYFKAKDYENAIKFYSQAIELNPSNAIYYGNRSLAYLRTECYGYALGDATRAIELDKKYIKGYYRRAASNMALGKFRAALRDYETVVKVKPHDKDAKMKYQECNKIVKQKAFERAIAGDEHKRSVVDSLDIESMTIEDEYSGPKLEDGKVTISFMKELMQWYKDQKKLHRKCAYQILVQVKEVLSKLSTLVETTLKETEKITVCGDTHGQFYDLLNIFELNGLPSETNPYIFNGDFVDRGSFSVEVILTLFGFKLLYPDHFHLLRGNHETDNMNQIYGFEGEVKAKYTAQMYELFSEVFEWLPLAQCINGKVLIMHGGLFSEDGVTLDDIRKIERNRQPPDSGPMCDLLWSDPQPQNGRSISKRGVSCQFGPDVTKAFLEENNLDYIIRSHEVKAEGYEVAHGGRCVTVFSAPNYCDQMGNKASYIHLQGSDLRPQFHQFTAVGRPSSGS

A short description of test [27]: IC50 of Artemis nuclease activity blockers – biochemical, fluorescence intensity, dose response (AID 720701).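 Also: Artemis endonuclease enzyme.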 The class given is functional.
Another test addresses Cytochrome P450 2C9 (Homo sapiens, UniProt P11712).

Cytochrome P450 2C9, sequence (P11712 whole entry): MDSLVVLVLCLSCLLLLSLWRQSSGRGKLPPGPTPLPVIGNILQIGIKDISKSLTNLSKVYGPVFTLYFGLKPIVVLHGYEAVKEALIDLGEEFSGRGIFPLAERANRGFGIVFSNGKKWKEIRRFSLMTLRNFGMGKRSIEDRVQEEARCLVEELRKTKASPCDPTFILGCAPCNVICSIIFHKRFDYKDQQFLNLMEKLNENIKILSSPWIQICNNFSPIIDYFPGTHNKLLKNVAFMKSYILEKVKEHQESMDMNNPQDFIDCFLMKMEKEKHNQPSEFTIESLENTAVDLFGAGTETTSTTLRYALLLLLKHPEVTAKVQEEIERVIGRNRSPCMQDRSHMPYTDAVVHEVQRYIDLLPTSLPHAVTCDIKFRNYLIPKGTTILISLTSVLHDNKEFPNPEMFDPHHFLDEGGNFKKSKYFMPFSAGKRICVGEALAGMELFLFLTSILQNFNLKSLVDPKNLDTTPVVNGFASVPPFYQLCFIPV
Signal transducer and activator of transcription 1-alpha/beta, sequence (P42224 whole entry): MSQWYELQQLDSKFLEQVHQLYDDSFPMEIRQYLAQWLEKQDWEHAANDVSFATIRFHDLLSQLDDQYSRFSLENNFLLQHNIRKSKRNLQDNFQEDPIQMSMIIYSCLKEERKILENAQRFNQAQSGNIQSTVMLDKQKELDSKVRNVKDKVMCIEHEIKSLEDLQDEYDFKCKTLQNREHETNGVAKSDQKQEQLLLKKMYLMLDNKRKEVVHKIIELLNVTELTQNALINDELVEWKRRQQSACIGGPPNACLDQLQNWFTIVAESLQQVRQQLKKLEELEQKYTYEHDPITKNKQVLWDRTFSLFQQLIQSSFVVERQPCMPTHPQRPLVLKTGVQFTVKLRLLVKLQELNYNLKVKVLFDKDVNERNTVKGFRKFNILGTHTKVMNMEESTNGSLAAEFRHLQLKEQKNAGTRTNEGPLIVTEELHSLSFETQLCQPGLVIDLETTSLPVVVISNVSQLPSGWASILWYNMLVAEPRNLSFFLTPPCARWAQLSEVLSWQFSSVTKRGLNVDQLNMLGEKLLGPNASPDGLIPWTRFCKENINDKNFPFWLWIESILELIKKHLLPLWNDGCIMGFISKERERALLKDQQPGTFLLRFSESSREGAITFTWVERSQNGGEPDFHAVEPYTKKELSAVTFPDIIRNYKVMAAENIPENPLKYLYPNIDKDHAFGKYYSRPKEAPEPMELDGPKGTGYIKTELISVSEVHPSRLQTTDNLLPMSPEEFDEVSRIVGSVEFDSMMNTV

Consider `CC1C(=O)NN=C1C(=O)N/N=C\C(Br)=C\c1ccccc1` (stereo not given), for which the half-maximal inhibitory concentration (IC50) in test [1] is recorded as 10.5 µM (not active).

In the case of `C[C@H](O)C#Cc1ccc2c(c1)O[C@@H](CN(C)Cc1ccc(-c3ccccc3)cc1)[C@H](C)CN([C@H](C)CO)S2(=O)=O`, the AC50 is 5.27 µM (active) at Paired box protein Pax-8; 34.8 µM (active) in [2]; 50.8 µM (active) in test [3]; 46.9 µM (active) in test [4]; 8.52 µM (active) in test [5]; 9.51 µM (active) in test [6]. Besides, the figures for the concentration at half-maximal activity (AC50) in [7] and in test [8] were 44.2 µM (active) and 26.4 µM (active), respectively.

In the case of `O=C(Nc1nccs1)c1cc(C2CC2)nn1-c1ccccc1`, in test [9], the IC50 is > 37.2 µM (inactive).

As to `Cc1ccc(NCc2nnc(SCc3ccc(C#N)cc3)n2Cc2ccco2)c(C)c1`, the EC50 in test [10], in test [11] and in test [12] was > 120 µM (not active) each time. In [13], the IC50 was > 100 µM (active).

For the compound `CO[C@@H]1CN(C)C(=O)c2ccc(NC(=O)c3ccc4c(c3)OCO4)cc2OC[C@@H](C)N(Cc2ccc3c(c2)OCO3)C[C@H]1C`, the concentration at half-maximal activity (AC50) in [14] was 4.99 µM (active); in test [15], 1.73 µM (active); in test [16], 1.11 µM (active); in [17] it was 0.279 µM (active); in test [18], 1.92 µM (active); in test [19] it was 1.17 µM (active).

As to `CC(C)N1C[C@H](C)[C@@H](CN(C)Cc2ccc(Oc3ccccc3)cc2)Oc2c(NC(=O)c3ccccc3)cccc2C1=O`, the AC50 in test [20] and in [21] was 0.506 µM (active) each time. The IC50 in test [22] was > 20 µM (inactive).

For `CC1CC(=O)NN=C1c1ccc(NCC(C)(C)NCC(O)COc2cc(Cl)ccc2C#N)cc1` (stereo not given) [OBERADILOL], the IC50 in test [23] is 15.2 µM (inactive); in “cells” it was > 33.3 µM (inactive).

`c1ccc(-c2nccc(-c3ccc(-n4cnc5ccccc54)cc3)n2)nc1`: the 50% inhibitory concentration (IC50) was 4 µM (active) in test [24], 57.6 µM (not active) in [26] and 4.65 µM (active) in test [27]. In addition, the CC50 in test [25] was > 40 µM (active). At Cytochrome P450 2C9, the AC50 is 22.4 µM (inconclusive).
